Measurements published in PMC8456958, “Selective Bacterial Targeting and Infection‐Triggered Release of Antibiotic Colistin Conjugates” (Angewandte Chemie (International Ed. in English), 2021).
Positions of bridges follow the written chain, without caps; N, C: chain ends. Non-standard residues stand in square brackets, D forms with d. Residues, ends and D or L forms follow the SMILES beside them. *: point of attachment. Heptanoyl(6-Me) = CC(C)CCCCC(=O)*; Dab = NCC[C@H](N)C(=O)O

Molecular target: T1, neutrophil elastase (NE) (Homo sapiens, UniProt P08246)
T1 construct: Activity of NE after co‐cultivation of PMN with E. coli K12 in presence of 1 or 6; endogenous in cells; host or cells: primary human PMN isolated from fresh venous whole blood of healthy volunteers, co-cultivated with E. coli K12
T1 sequence (P08246 30-267): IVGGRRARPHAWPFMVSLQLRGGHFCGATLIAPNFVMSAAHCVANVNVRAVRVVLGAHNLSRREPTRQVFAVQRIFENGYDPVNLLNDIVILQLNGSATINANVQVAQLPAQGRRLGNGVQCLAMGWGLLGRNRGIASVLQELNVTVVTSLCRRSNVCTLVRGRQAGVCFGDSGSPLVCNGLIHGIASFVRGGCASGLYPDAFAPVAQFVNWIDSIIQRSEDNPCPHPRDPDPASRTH
Experiment: Activity of NE in co-cultivation of PMN with E. coli K12 (MeOSuc-AAPV-pNA cleavage)
Assay type: cell-based
Conditions: 10 μM; PMN co-cultivated with E. coli K12, 1 h, 37 °C, RPMI 1640/HEPES-NaCl 1:1; mean of two experiments
Method: Figure 5 Cellular proof of concept for triggered antibiotic release from 6. a) Release of neutrophil elastase (NE) from neutrophil granulocytes. PMN were isolated and suspended in RPMI 1640. For activation, 0.1 μM fMLP was added. The samples were incubated for 1 h at 37 °C, centrifuged to remove cells, and the NE concentration was determined in the supernatant by ELISA. Values normalized to 1×10^6 cells mL^−1. Data are presented as the mean of 4 separate experiments. *p<0.03 compared to unactivated. b) Activity of NE after co‐cultivation of PMN with E. coli K12 in presence of 1 or 6. […] After 1 h colistin concentrations were determined by HPLC–MS. […]
Calculation of results: All samples and standards were measured in duplicate. The standard curve was constructed by plotting the mean absorbance for each standard on the y-axis against the concentration on the x-axis. A linear regression analysis was performed and the results for the samples were calculated. […]
on. […] The plate was incubated in a microplate reader for 60 min at 37 °C with shaking for 5 sec at 50 rpm once per minute.
Every minute readings were taken at 410 nm. For the calculation of the cleavage velocity, the difference in absorbance after an initialization phase at 15 min and a further incubation time of 30 min was used and related to total cleavage of the substrate. The blank was subtracted from the readings. […]

CC(C)CCCCC(=O)N[C@@H](CCN)C(=O)N[C@H](C(=O)N[C@@H](CCN)C(=O)N[C@H]1CCNC(=O)[C@H]([C@@H](C)O)NC(=O)[C@H](CCN)NC(=O)[C@H](CCN)NC(=O)[C@H](CC(C)C)NC(=O)[C@@H](CC(C)C)NC(=O)[C@H](CCN)NC1=O)[C@@H](C)O [Compound 1, colistin B, reference compound] ({Heptanoyl(6-Me)}-[Dab]T[Dab][Dab][Dab][dL]L[Dab][Dab]T; lactam 4-C)
enhancing effect on the activity of NE: 2.3–2.5 fold
